From patent US10246429B2, “Vinyl fluoride cyclopropyl fused thiazin-2-amine compounds as beta-secretase inhibitors and methods of use” (AMGEN INC., priority 2015, dated 2019)

Legend:
BACE1 [1] = molecular target: T1, BACE1 (Homo sapiens (Human), UniProt P56817); experiment: BACE1 cell assay; format: cell-based
Target sequence in this assay (P56817 46-501, species assumed): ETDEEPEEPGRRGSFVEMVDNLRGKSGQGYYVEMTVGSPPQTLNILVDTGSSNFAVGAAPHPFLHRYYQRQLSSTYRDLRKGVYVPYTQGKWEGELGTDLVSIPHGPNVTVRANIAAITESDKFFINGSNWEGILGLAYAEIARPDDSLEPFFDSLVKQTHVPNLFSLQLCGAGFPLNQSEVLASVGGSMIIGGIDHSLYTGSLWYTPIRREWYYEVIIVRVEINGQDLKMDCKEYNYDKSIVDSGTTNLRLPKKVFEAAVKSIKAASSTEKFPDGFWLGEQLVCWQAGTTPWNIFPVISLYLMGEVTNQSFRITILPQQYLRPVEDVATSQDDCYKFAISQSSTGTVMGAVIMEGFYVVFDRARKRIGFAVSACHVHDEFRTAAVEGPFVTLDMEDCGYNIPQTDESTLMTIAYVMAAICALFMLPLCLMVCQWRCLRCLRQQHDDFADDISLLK

BACE2 = BACE2 (Homo sapiens (Human), UniProt Q9Y5Z0); experiment: In vitro enzymatic BACE2 FRET assay; format: biochemical; conditions: read-out: IC50 IP (μM) BACE2 Enzyme
Excerpt: (§1) In Vitro Enzymatic BACE1 and BACE2 FRET (Fluorescence Resonance Energy Transfer) Assays (Enzyme Assay Data in Table 1)

BACE1 [2] = molecular target: T1, BACE1; experiment: In vitro enzymatic BACE1 FRET assay; format: biochemical; conditions: read-out: IC50 IP (μM) BACE1 Enzyme
Target sequence in this assay (P56817 46-501): as the sequence (P56817 46-501, species assumed) above
Excerpt: as §1

Cathepsin D (CatD) = Cathepsin D (CatD) (Homo sapiens (Human), UniProt P07339); experiment: CatD assay; format: biochemical; conditions: read-out: IC50 IP (μM) CatD
[3] = read-out: IC50 IP (μM) BACE1 Cell

Cathepsin D (CatD), sequence (P07339 65-412, species assumed): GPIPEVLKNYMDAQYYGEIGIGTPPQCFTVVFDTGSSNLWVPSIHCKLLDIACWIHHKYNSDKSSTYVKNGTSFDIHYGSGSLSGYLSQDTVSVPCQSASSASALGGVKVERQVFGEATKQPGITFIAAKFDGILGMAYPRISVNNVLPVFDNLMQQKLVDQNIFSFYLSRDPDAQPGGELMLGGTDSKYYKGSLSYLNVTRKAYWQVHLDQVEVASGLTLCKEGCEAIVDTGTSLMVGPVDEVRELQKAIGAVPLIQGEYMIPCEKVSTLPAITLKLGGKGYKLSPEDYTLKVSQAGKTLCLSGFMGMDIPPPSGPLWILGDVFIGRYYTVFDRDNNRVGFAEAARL
BACE2, sequence (Q9Y5Z0 63-518): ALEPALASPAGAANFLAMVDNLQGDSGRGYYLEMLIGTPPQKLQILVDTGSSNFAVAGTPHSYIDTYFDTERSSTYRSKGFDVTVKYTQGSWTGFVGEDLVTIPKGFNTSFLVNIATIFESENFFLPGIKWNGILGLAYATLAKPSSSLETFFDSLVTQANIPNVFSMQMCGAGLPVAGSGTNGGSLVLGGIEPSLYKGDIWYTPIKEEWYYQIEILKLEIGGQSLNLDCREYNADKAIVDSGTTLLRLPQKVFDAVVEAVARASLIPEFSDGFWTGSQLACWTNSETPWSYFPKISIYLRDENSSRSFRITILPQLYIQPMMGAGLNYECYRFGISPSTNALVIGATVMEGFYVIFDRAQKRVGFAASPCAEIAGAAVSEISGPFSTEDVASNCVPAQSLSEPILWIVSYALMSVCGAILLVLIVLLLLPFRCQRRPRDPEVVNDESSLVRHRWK

Row | SMILES | IC50 (BACE2) [µM] | IC50 (Cathepsin D (CatD)) [µM] | IC50 (BACE1 [1]; [3]) [µM] | IC50 (BACE1 [2]) [µM] | IC50 (BACE1 [1]) [µM]
1 | C[C@]1(c2cc(/C=C(\F)c3cnc(C#N)cn3)ccc2F)N=C(N)S[C@@]2(C(=O)N3CC[C@H](F)C3)C[C@H]21 [Example 202, 5-((Z)-2-(3-((1S,5S,6S)-3-amino-1-((S)-3-fluoropyrrolidine-1-carbonyl)-5-methyl-2-thia-4-azabicyclo[4.1.0]hept-3-en-5-yl)-4-fluorophenyl)-1-fluorovinyl)pyrazine-2-carbonitrile] | 0.04 | – | 0.001 | 0.001 | –
2 | C#CCOc1cnc(/C(F)=C/c2ccc(F)c([C@@]3(C)N=C(N)S[C@@]4(C(=O)N5CCOC[C@H]5C)C[C@H]43)c2)cn1 [Example 304, ((1S,5S,6S)-3-amino-5-(2-fluoro-5-((Z)-2-fluoro-2-(5-(prop-2-yn-1-yloxy)pyrazin-2-yl)vinyl)phenyl)-5-methyl-2-thia-4-azabicyclo[4.1.0]hept-3-en-1-yl)((R)-3-methylmorpholino)methanone] | 0.29 | – | 0.0015 | 0.0006 | –
3 | C[C@]1(c2cc(/C=C(\F)c3ccc(C#N)cn3)cnc2F)N=C(N)S[C@@]2(C(=O)N3[C@H]4COC[C@@H]3COC4)C[C@H]21 [Example 298, 6-((Z)-2-(5-((1S,5S,6S)-3-amino-1-((1R,5R)-3,7-dioxa-9-azabicyclo[3.3.1]nonane-9-carbonyl)-5-methyl-2-thia-4-azabicyclo[4.1.0]hept-3-en-5-yl)-6-fluoropyridin-3-yl)-1-fluorovinyl)nicotinonitrile] | – | – | – | – | 0.0173
4 | C[C@]1(c2cc(/C=C(\F)c3cnc(C#N)cn3)ccc2F)N=C(N)S[C@]2(CO)[C@H]1C2(F)F [Example 254, 5-((Z)-2-(3-((1S,5S,6R)-3-amino-7,7-difluoro-1-(hydroxymethyl)-5-methyl-2-thia-4-azabicyclo[4.1.0]hept-3-en-5-yl)-4-fluorophenyl)-1-fluorovinyl)pyrazine-2-carbonitrile trifluoromethyl acetate] | – | – | 0.0894 | – | –
5 | CNC(=O)[C@]12C[C@H]1[C@@](C)(c1cc(/C=C(\F)c3cc4c(cn3)OCCO4)ccc1F)N=C(N)S2 [Example 249, (1S,5S,6S)-3-amino-5-(5-((Z)-2-(2,3-dihydro-[1,4]dioxino[2,3-c]pyridin-7-yl)-2-fluorovinyl)-2-fluorophenyl)-N,5-dimethyl-2-thia-4-azabicyclo[4.1.0]hept-3-ene-1-carboxamide] | – | – | – | – | 0.336
6 | COC[C@]12C[C@H]1[C@@](C)(c1cc(/C=C(\F)c3cc4c(cn3)OCCO4)ccc1F)N=C(N)S2 [Example 305, (1S,5S,6S)-5-(5-((Z)-2-(2,3-dihydro-[1,4]dioxino[2,3-c]pyridin-7-yl)-2-fluorovinyl)-2-fluorophenyl)-1-(methoxymethyl)-5-methyl-2-thia-4-azabicyclo[4.1.0]hept-3-en-3-amine] | 0.373 | – | 0.793 | 1.76 | –
7 | C#CCOc1cnc(/C(F)=C/c2cnc(F)c([C@@]3(C)N=C(N)S[C@@]4(C(=O)N5CCOC[C@H]5C)C[C@H]43)c2)cn1 [Example 283, ((1S,5S,6S)-3-amino-5-(2-fluoro-5-((Z)-2-fluoro-2-(5-(prop-2-yn-1-yloxy)pyrazin-2-yl)vinyl)pyridin-3-yl)-5-methyl-2-thia-4-azabicyclo[4.1.0]hept-3-en-1-yl)((R)-3-methylmorpholino)methanone] | 0.375 | – | 0.0044 | 0.0017 | –
8 | C#C[C@H](C)Oc1cnc(/C(F)=C/c2ccc(F)c([C@@]3(C)N=C(N)S[C@@]4(C(C)=O)C[C@H]43)c2)cn1 [Example 237, 1-((1S,5S,6S)-3-amino-5-(5-((Z)-2-(5-((S)-but-3-yn-2-yloxy)pyrazin-2-yl)-2-fluorovinyl)-2-fluorophenyl)-5-methyl-2-thia-4-azabicyclo[4.1.0]hept-3-en-1-yl)ethanone] | 0.438 | – | 0.0339 | 0.0032 | –
9 | C[C@]1(c2cc(/C=C(\F)c3cnc(C#N)cn3)ccc2F)N=C(N)S[C@@]2(C(=O)N3CCOCC3)C[C@H]21 [Example 200, 5-((Z)-2-(3-((1S,5S,6S)-3-amino-5-methyl-1-(morpholine-4-carbonyl)-2-thia-4-azabicyclo[4.1.0]hept-3-en-5-yl)-4-fluorophenyl)-1-fluorovinyl)pyrazine-2-carbonitrile] | – | – | – | 0.001 | 0.004
10 | C[C@]1(c2cc(/C=C(\F)c3ccc(Cl)cn3)ccc2F)N=C(N)S[C@@]2(CO)C[C@H]21 [Example 113, ((1S,5S,6S)-3-amino-5-(5-((Z)-2-(5-chloropyridin-2-yl)-2-fluorovinyl)-2-fluorophenyl)-5-methyl-2-thia-4-azabicyclo[4.1.0]hept-3-en-1-yl)methanol] | 0.0339 | 400 | – | – | –
11 | CN(C)C(=O)[C@]12C[C@H]1[C@@](C)(c1cc(/C=C(\F)c3cnc(C#N)cn3)ccc1F)N=C(N)S2 [Example 169, (1S,5S,6S)-3-amino-5-(5-((Z)-2-(5-cyanopyrazin-2-yl)-2-fluorovinyl)-2-fluorophenyl)-N,N,5-trimethyl-2-thia-4-azabicyclo[4.1.0]hept-3-ene-1-carboxamide] | 0.0174 | 95.5 | – | – | –
12 | COC[C@]12C[C@H]1[C@@](C)(c1cc(/C=C(\F)c3ccc(C#N)cn3)ccc1F)N=C(N)S2 [Example 293, 6-((Z)-2-(3-((1S,5S,6S)-3-amino-1-(methoxymethyl)-5-methyl-2-thia-4-azabicyclo[4.1.0]hept-3-en-5-yl)-4-fluorophenyl)-1-fluorovinyl)nicotinonitrile] | 0.192 | 400 | – | 0.0165 | –
13 | C[C@]1(c2cc(/C=C(\F)c3ccc(C#N)cn3)ccc2F)N=C(N)S[C@@]2(C(=O)N3CCCC(C#N)C3)C[C@H]21 (stereo partly drawn) [Example 143, 6-((Z)-2-(3-((1S,5S,6S)-3-amino-1-(3-cyanopiperidine-1-carbonyl)-5-methyl-2-thia-4-azabicyclo[4.1.0]hept-3-en-5-yl)-4-fluorophenyl)-1-fluorovinyl)nicotinonitrile] | 0.0127 | 152 | – | – | –

The next lines start with results.

Row | IC50 (BACE2) [µM] | IC50 (Cathepsin D (CatD)) [µM] | SMILES | IC50 (BACE1 [1]; [3]) [µM] | IC50 (BACE1 [2]) [µM] | IC50 (BACE1 [1]) [µM]
14 | 0.34 | 125 | COc1ncc(/C=C(\F)c2ccc(C#N)cn2)cc1[C@@]1(C)N=C(N)S[C@@]2(C(=O)N3CC[C@@H](F)C3)C[C@H]21 [Example 184, 6-((Z)-2-(5-((1S,5S,6S)-3-amino-1-((R)-3-fluoropyrrolidine-1-carbonyl)-5-methyl-2-thia-4-azabicyclo[4.1.0]hept-3-en-5-yl)-6-methoxypyridin-3-yl)-1-fluorovinyl)nicotinonitrile] | 0.014 | – | –
15 | 0.0924 | 70.9 | CC1CCCN1C(=O)[C@]12C[C@H]1[C@@](C)(c1cc(/C=C(\F)c3ccc(C#N)cn3)ccc1F)N=C(N)S2 (stereo partly drawn) [Example 138, 6-((Z)-2-(3-((1S,5S,6S)-3-amino-5-methyl-1-(2-methylpyrrolidine-1-carbonyl)-2-thia-4-azabicyclo[4.1.0]hept-3-en-5-yl)-4-fluorophenyl)-1-fluorovinyl)nicotinonitrile] | – | – | –
16 | 0.146 | 202 | CN(C)C(=O)[C@]12C[C@H]1[C@@](C)(c1cc(/C=C(\F)c3ccc(C#N)cc3F)ccc1F)N=C(N)S2 [Example 172, (1S,5S,6S)-3-amino-5-(5-((Z)-2-(4-cyano-2-fluorophenyl)-2-fluorovinyl)-2-fluorophenyl)-N,N,5-trimethyl-2-thia-4-azabicyclo[4.1.0]hept-3-ene-1-carboxamide] | – | – | –
17 | 0.8 | 400 | CN(C)[C@@H]1CCN(C(=O)[C@]23C[C@H]2[C@@](C)(c2cc(/C=C(\F)c4ccc(C#N)cn4)ccc2F)N=C(N)S3)C1 [Example 134, 6-((Z)-2-(3-((1S,5S,6S)-3-amino-1-((R)-3-(dimethylamino)pyrrolidine-1-carbonyl)-5-methyl-2-thia-4-azabicyclo[4.1.0]hept-3-en-5-yl)-4-fluorophenyl)-1-fluorovinyl)nicotinonitrile] | – | – | –
18 | 0.102 | 734 | COC(=O)[C@]12C[C@H]1[C@@](C)(c1cc(/C=C(\F)c3ccc(Cl)cn3)ccc1F)N=C(N)S2 [Example 111, (1S,5S,6S)-methyl 3-amino-5-(5-((Z)-2-(5-chloropyridin-2-yl)-2-fluorovinyl)-2-fluorophenyl)-5-methyl-2-thia-4-azabicyclo[4.1.0]hept-3-ene-1-carboxylate] | – | – | –
19 | 0.127 | 302 | COC(=O)[C@]12C[C@H]1[C@@](C)(c1cc(/C=C(\F)c3ccc(Br)cn3)ccc1F)N=C(N)S2 [Example 105, (1S,5S,6S)-methyl 3-amino-5-(5-((Z)-2-(5-bromopyridin-2-yl)-2-fluorovinyl)-2-fluorophenyl)-5-methyl-2-thia-4-azabicyclo[4.1.0]hept-3-ene-1-carboxylate] | – | – | –
20 | 0.135 | 93.8 | CC(Oc1cnc(/C(F)=C/c2ccc(F)c([C@@]3(C)N=C(N)S[C@@]4(C(=O)N(C)C)C[C@H]43)c2)cn1)c1ncco1 (stereo partly drawn) [Example 156, (1S,5S,6S)-3-amino-5-(2-fluoro-5-((Z)-2-fluoro-2-(5-(-1-(oxazol-2-yl)ethoxy)pyrazin-2-yl)vinyl)phenyl)-N,N,5-trimethyl-2-thia-4-azabicyclo[4.1.0]hept-3-ene-1-carboxamide] | – | – | –
21 | 0.023 | > 400 | CN(C)C(=O)[C@]12C[C@H]1[C@@](C)(c1cc(/C=C(\F)c3ccc(C#N)cn3)cnc1F)N=C(N)S2 [Example 180, (1S,5S,6S)-3-amino-5-(5-((Z)-2-(5-cyanopyridin-2-yl)-2-fluorovinyl)-2-fluoropyridin-3-yl)-N,N,5-trimethyl-2-thia-4-azabicyclo[4.1.0]hept-3-ene-1-carboxamide] | – | – | –
22 | 1.03 | 231 | COC(=O)[C@]12C[C@H]1[C@@](C)(c1cc(/C=C(\F)c3cnc(Br)cn3)ccc1F)N=C(N)S2 [Example 148, (1S,5S,6S)-methyl 3-amino-5-(5-((Z)-2-(5-bromopyrazin-2-yl)-2-fluorovinyl)-2-fluorophenyl)-5-methyl-2-thia-4-azabicyclo[4.1.0]hept-3-ene-1-carboxylate] | – | – | –
